pKd: −log10 of the molar value.

The experiment deals with T1, BRD4 bromodomains (Homo sapiens, UniProt O60885).
T1 construct: fused on or other part: T7 phage capsid protein (phage-display fusion; the phage DNA is read out by qPCR)
Put plainly: BROMOscan bromodomain competition binding assay (DiscoveRx). Particulars: Kd from 11 compound concentrations ranging from 0 to 10 μM, read-out: BROMOscan Relative Activity. An outline of the steps:
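Compounds in 0.1% DMSO/0.9% MEG competed with a solid-phase acetylated peptide for T7 phage-fused BRD4 bromodomains, with the retained bromodomain measured by qPCR.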
Take `CC(=O)N1CCN(c2nc(NCc3cccc(Cl)c3)c3cc(-c4c(C)noc4C)ccc3n2)CC1` [Example 184, 1-(4-(4-((3-chlorobenzyl)amino)-6-(3,5-dimethylisoxazol-4-yl)quinazolin-2-yl)piperazin-1-yl)ethanone]: the pKd was over 6.30.

Regarding `Cc1noc(C)c1-c1ccc2nc(N3CCc4ncn(C)c4C3)nc(N3CCOC[C@@H]3c3ccccc3)c2c1` [Example 311, (S)-4-(6-(3,5-dimethylisoxazol-4-yl)-2-(3-methyl-3,4,6,7-tetrahydro-5H-imidazo[4,5-c]pyridin-5-yl)quinazolin-4-yl)-3-phenylmorpholine], the pKd is over 6.30.

For `Cc1noc(C)c1-c1ccc2nc(N3CCN(CCN(C)C)CC3)nc(N3CCCCC3c3ccccc3)c2c1` (stereo not shown) [Example 175, 2-(4-(6-(3,5-dimethylisoxazol-4-yl)-4-(2-phenylpiperidin-1-yl)quinazolin-2-yl)piperazin-1-yl)-N,N-dimethylethanamine], the pKd was over 6.30.

On to `CN(C)CCN1CCN(c2nc(NCc3cccc(Cl)c3)c3cc(-c4ccc(=O)n(C)c4)ccc3n2)CC1` [Example 66, 5-(4-((3-chlorobenzyl)amino)-2-(4-(2-(dimethylamino)ethyl)piperazin-1-yl)quinazolin-6-yl)-1-methylpyridin-2(1H)-one], for which the pKd was over 6.30.

With `Cc1noc(C)c1-c1ccc2nc(N3CCN(CCN(C)C)CC3)nc(NCc3ccccc3Cl)c2c1` [Example 74, N-(2-chlorobenzyl)-2-(4-(2-(dimethylamino)ethyl)piperazin-1-yl)-6-(3,5-dimethylisoxazol-4-yl)quinazolin-4-amine], the pKd is over 6.30.

On to `Cc1noc(C)c1-c1ccc2nc(C(=O)NCC3CN(C)C3)nc(NC3(c4cccc(Cl)c4)CC3)c2c1` [Example 240, 4-((1-(3-chlorophenyl)cyclopropyl)amino)-6-(3,5-dimethylisoxazol-4-yl)-N-((1-methylazetidin-3-yl)methyl)quinazoline-2-carboxamide], for which the pKd is over 6.30.

As to `Cc1cc(NCc2cccc(Cl)c2)c2cc(-c3c(C)noc3C)ccc2n1` [Example 4, N-(3-chlorobenzyl)-6-(3,5-dimethylisoxazol-4-yl)-2-methylquinolin-4-amine], the pKd was 5.30 to 6.30.

For `Cc1n[nH]c(C)c1-c1ccc2nc(N3CCN(CCN(C)C)CC3)nc(NCc3cccc(Cl)c3)c2c1` [Example 65, N-(3-chlorobenzyl)-6-(3,5-dimethyl-1H-pyrazol-4-yl)-2-(4-(2-(dimethylamino)ethyl)piperazin-1-yl)quinazolin-4-amine], the pKd is 5.30 to 6.30.

Consider `Cc1noc(C)c1-c1ccc2nc(C(=O)N3CCc4[nH]ncc4C3)nc(NCc3cncc(Cl)c3)c2c1` [Example 284, (4-(((5-chloropyridin-3-yl)methyl)amino)-6-(3,5-dimethylisoxazol-4-yl)quinazolin-2-yl)(1,4,6,7-tetrahydro-5H-pyrazolo[4,3-c]pyridin-5-yl)methanone], for which the pKd is 5.30 to 6.30.

`Cn1cc(-c2ccc3nc(N4CCN(CC(C)(C)O)CC4)nc(NCc4cccc(Cl)c4)c3c2)ccc1=O` [Example 134, 5-(4-((3-chlorobenzyl)amino)-2-(4-(2-hydroxy-2-methylpropyl)piperazin-1-yl)quinazolin-6-yl)-1-methylpyridin-2(1H)-one]: the pKd is over 6.30.

As for `Cc1noc(C)c1-c1ccc2nc(N3CCCN(CCO)CC3)nc(NCc3cccc(Cl)c3)c2c1` [Example 33, 2-(4-(4-((3-chlorobenzyl)amino)-6-(3,5-dimethylisoxazol-4-yl)quinazolin-2-yl)-1,4-diazepan-1-yl)ethanol], the pKd was over 6.30.

Consider `Cc1noc(C)c1-c1ccc2nc(N3CCN(CCN(C)C)CC3)nc(N[C@H](CO)c3ccccc3)c2c1` [Example 173, (S)-2-((2-(4-(2-(dimethylamino)ethyl)piperazin-1-yl)-6-(3,5-dimethylisoxazol-4-yl)quinazolin-4-yl)amino)-2-phenylethanol], for which the pKd is over 6.30.

Take `COc1ccccc1CNc1nc(N2CCN(CCN(C)C)CC2)nc2ccc(-c3c(C)noc3C)cc12` [Example 72, 2-(4-(2-(dimethylamino)ethyl)piperazin-1-yl)-6-(3,5-dimethylisoxazol-4-yl)-N-(2-methoxybenzyl)quinazolin-4-amine]: the pKd is over 6.30.

With `Cc1noc(C)c1-c1ccc2nc(C(=O)O)nc(NCc3cccc(Cl)c3)c2c1` [Example 163, 4-((3-chlorobenzyl)amino)-6-(3,5-dimethylisoxazol-4-yl)quinazoline-2-carboxylic acid], the pKd is over 6.30.

On to `Cc1noc(C)c1-c1ccc2nc(-c3cnn(C4CCNCC4)c3)nc(N3CCOC[C@@H]3c3ccccc3)c2c1` [Example 319, (S)-4-(6-(3,5-dimethylisoxazol-4-yl)-2-(1-(piperidin-4-yl)-1H-pyrazol-4-yl)quinazolin-4-yl)-3-phenylmorpholine], for which the pKd is over 6.30.

As to `Cc1noc(C)c1-c1ccc2nc(-c3cnn(C(C)(C)CO)c3)nc(N3CCOC[C@@H]3c3ccccc3)c2c1` [Example 304, (S)-2-(4-(6-(3,5-dimethylisoxazol-4-yl)-4-(3-phenylmorpholino)quinazolin-2-yl)-1H-pyrazol-1-yl)-2-methylpropan-1-ol], the pKd is over 6.30.

Turning to `Cc1noc(C)c1-c1ccc2nc(-c3cnn(CC(C)(C)O)c3)nc(N3CCOC[C@H]3c3ccccc3)c2c1` [Example 263, (R)-1-(4-(6-(3,5-dimethylisoxazol-4-yl)-4-(3-phenylmorpholino)quinazolin-2-yl)-1H-pyrazol-1-yl)-2-methylpropan-2-ol], the pKd was over 6.30.

Turning to `Cc1noc(C)c1-c1ccc2nc(N3CCN(CCN(C)C)CC3)nc(NCc3ccccc3)c2c1` [Example 92, N-benzyl-2-(4-(2-(dimethylamino)ethyl)piperazin-1-yl)-6-(3,5-dimethylisoxazol-4-yl)quinazolin-4-amine], the pKd was over 6.30.

For the compound `Cc1noc(C)c1-c1ccc2nc(C(=O)NC3CCS(=O)(=O)CC3)nc(NCc3cncc(Cl)c3)c2c1` [Example 239, 4-(((5-chloropyridin-3-yl)methyl)amino)-6-(3,5-dimethylisoxazol-4-yl)-N-(1,1-dioxidotetrahydro-2H-thiopyran-4-yl)quinazoline-2-carboxamide], the pKd was over 6.30.

As for `CN1CCC(NC(=O)c2cc(NCc3cccc(Cl)c3)c3cc(-c4ccc(=O)n(C)c4)ccc3n2)CC1` [Example 227, 4-((3-chlorobenzyl)amino)-6-(1-methyl-6-oxo-1,6-dihydropyridin-3-yl)-N-(1-methylpiperidin-4-yl)quinoline-2-carboxamide], the pKd was over 6.30.

`Cc1noc(C)c1-c1ccc2nc(N3CCN(CCN(C)C)CC3)nc(NCCc3ccc(Cl)cc3)c2c1` [Example 160, N-(4-chlorophenethyl)-2-(4-(2-(dimethylamino)ethyl)piperazin-1-yl)-6-(3,5-dimethylisoxazol-4-yl)quinazolin-4-amine]: the pKd was 5.30 to 6.30.

For the compound `Cc1noc(C)c1-c1ccc2nc(C(=O)NC3CCC(F)(F)CC3)nc(NCc3cccc(Cl)c3)c2c1` [Example 252, 4-((3-chlorobenzyl)amino)-N-(4,4-difluorocyclohexyl)-6-(3,5-dimethylisoxazol-4-yl)quinazoline-2-carboxamide], the pKd was 5.30 to 6.30.

As to `Cc1noc(C)c1-c1ccc2nc(N3CCN(S(C)(=O)=O)CC3)nc(NCc3cccc(Cl)c3)c2c1` [Example 155, N-(3-chlorobenzyl)-6-(3,5-dimethylisoxazol-4-yl)-2-(4-(methylsulfonyl)piperazin-1-yl)quinazolin-4-amine], the pKd was over 6.30.

For `Cc1noc(C)c1-c1ccc2nc(-c3cnn(CC(C)(C)O)c3)nc(N3CCOC[C@@H]3c3ccccc3)c2c1` [Example 262, (S)-1-(4-(6-(3,5-dimethylisoxazol-4-yl)-4-(3-phenylmorpholino)quinazolin-2-yl)-1H-pyrazol-1-yl)-2-methylpropan-2-ol], the pKd was over 6.30.

Turning to `Cc1ccncc1NC(=O)c1nc(NCc2cccc(Cl)c2)c2cc(-c3c(C)noc3C)ccc2n1` [Example 220, 4-((3-chlorobenzyl)amino)-6-(3,5-dimethylisoxazol-4-yl)-N-(4-methylpyridin-3-yl)quinazoline-2-carboxamide], the pKd was over 6.30.

Turning to `CNC(=O)Cn1cc(-c2nc(NCc3cncc(Cl)c3)c3cc(-c4ccc(=O)n(C)c4)ccc3n2)cn1` [Example 147, 2-(4-(4-(((5-chloropyridin-3-yl)methyl)amino)-6-(1-methyl-6-oxo-1,6-dihydropyridin-3-yl)quinazolin-2-yl)-1H-pyrazol-1-yl)-N-methylacetamide], the pKd is over 6.30.

With `Cc1cnc(CNC(=O)c2nc(NCc3cccc(Cl)c3)c3cc(-c4c(C)noc4C)ccc3n2)o1` [Example 216, 4-((3-chlorobenzyl)amino)-6-(3,5-dimethylisoxazol-4-yl)-N-((5-methyloxazol-2-yl)methyl)quinazoline-2-carboxamide], the pKd is over 6.30.

With `Cn1cc(-c2ccc3nc(N4CCN(CC(C)(C)O)CC4)nc(NCc4cncc(Cl)c4)c3c2)ccc1=O` [Example 135, 5-(4-(((5-chloropyridin-3-yl)methyl)amino)-2-(4-(2-hydroxy-2-methylpropyl)piperazin-1-yl)quinazolin-6-yl)-1-methylpyridin-2(1H)-one], the pKd was over 6.30.

`Cc1noc(C)c1-c1ccc2nc(-c3cnn(CCO)c3)nc(NCc3cccc(Cl)c3)c2c1` [Example 48, 2-(4-(4-((3-chlorobenzyl)amino)-6-(3,5-dimethylisoxazol-4-yl)quinazolin-2-yl)-1H-pyrazol-1-yl)ethanol]: the pKd was over 6.30.

As for `Cc1noc(C)c1-c1ccc2ncnc(NCc3cccc(Cl)c3)c2c1` [Example 2, N-(3-chlorobenzyl)-6-(3,5-dimethylisoxazol-4-yl)quinazolin-4-amine], the pKd was over 6.30.

With `Cc1noc(C)c1-c1ccc2nc(C(=O)NCc3ccncc3Cl)nc(NCc3cccc(Cl)c3)c2c1` [Example 208, 4-((3-chlorobenzyl)amino)-N-((3-chloropyridin-4-yl)methyl)-6-(3,5-dimethylisoxazol-4-yl)quinazoline-2-carboxamide], the pKd is over 6.30.

(Values after patent publication US11028079B2 (ConverGene LLC, priority 2015, dated 2021).)
